Measured values reported in patent EP4570244A1, “ENHANCING AGENT OF CARDIOLIPIN MOLECULAR SPECIES THAT IS MITOCHONDRIAL COMPONENT” (Watanabe Oyster Laboratory Co., Ltd., priority 2022, dated 2024).

Columns and labels:
[1] = tested on: Human renal proximal tubule cells (HK-2); assay: Cardiolipin measurement by LC-MS/MS in HK-2 cells under oxidative stress stimulation; format: cell-based
Method: (§1) Human renal proximal tubule cells (HK-2) were subcultured in Dulbecco's Modified Eagle's Medium (DMEM, Nacalai Tesque) containing 10% fetal bovine serum and 1% penicillin-streptmycin at 37°C in a 5% CO2 incubator. The following experiments were conducted using the oxidative stress inducer to confirm the cardiolipin increase effect of DHMBA on the oxidative stress.
HK-2 cells were seeded in a 6-well plate at a density of 1.0 × 10^5 cells/well and cultured for 24 hours. The cells were then divided into four groups with different stimulus conditions, and 2 mL thereof was added to each well.
The above-described four groups with the different stimulus conditions are as follows.
Control group (culture medium); oxidative stress group (final concentration 100 µM Oxidative Stress); oxidative stress + DHMBA 250 group (final concentration 100 µM Oxidative Stress + final concentration 250 µM DHMBA); and oxidative stress + DHMBA 500 group (final concentration 100 µM Oxidative Stress + final concentration 500 µM DHMBA).
After 24 hours, the cells were washed twice with phosphate-buffered saline (hereinafter referred to as PBS), and then 1 mL of PBS was added to each well and the cells were recovered using a scraper. In this cell suspension, 100 µL was used for protein quantification by a bicinchoninic acid (BCA) method. The protein concentration was used for correction of the cardiolipin concentration. The remaining cell suspension was centrifuged at 1,200 rpm for 5 minutes, the supernatant was removed, and then the precipitated cells were stored at -80°C.
For the cardiolipin measurement, the total intracellular lipids were extracted in the same way as in the previous reports (Chen Z, et al. Metabolomics, 16: 115, 2020).
In short, the lipids in the sample were extracted using hexane/isopropanol 3:2 (v/v, with 0.05% butylated hydroxytoluene), and then dried and hardened in an evaporator. Next, the sample was dissolved in methanol (MeOH), and insoluble substances were removed by centrifugation at 15,000 rpm for 15 minutes at 4°C. The total lipids extracted were stored at -80°C. The cardiolipin measurement was performed using LC-MS/MS, following the same procedure as before.

[2] = tested on: CDS2; assay: qPCR expression level of cardiolipin biosynthesis-related gene in HK-2 cells under oxidative stress; format: cell-based, Human; conditions: oxidative stress + DHMBA, 24 hours, versus the increase in the oxidative stress group, corrected with β-actin, FIG. 5
Method: as §1
(§2) HK-2 cells were seeded in a 6-well plate at a density of 5.0 × 10^4 cells/well and cultured for 24 hours.
(§3) Next, under the same stimulus conditions as described above, 2 mL thereof was added to each well. After 24 hours, total RNA was recovered using NucleoSpin (registered trademark) RNA Kit (MACHEREY-NAGEL). The concentration of the purified RNA was quantified by Nanodrop (Invitrogen). From 1.0 µg of the total RNA, cDNA was synthesized according to a protocol for ReverTra Ace (registered trademark) qPCR RT Master Mix with gDNA Remover (TOYOBO).
(§4) The gene expression levels were measured according to a protocol for THUNDERBIRD (registered trademark) SYBR (registered trademark) qPCR Mix (TOYOBO). Measurements were performed using a CFX Connect™ real-time PCR analysis system (BioRad), and analyzed using a 2^-(ΔΔCT) method.
(§5) The gene expression level of the control group was set at 1 for comparison. The figures are expressed as mean ± SD (n = 4 for each group). […]

[3] = tested on: PNPLA8; assay: qPCR expression level of cardiolipin remodeling and degradation-related gene in HK-2 cells under oxidative stress; format: cell-based, Human; conditions: oxidative stress + DHMBA, 24 hours, versus the increase in the oxidative stress group, corrected with β-actin, FIG. 6
Method: as §1, §2, §3, §4, §5

[4] = tested on: HADHB; assay: as above; format: cell-based, Human; conditions: oxidative stress + DHMBA, 24 hours, corrected with β-actin, FIG. 6
Method: as §1, §2, §3, §4, §5

[5] = oxidative stress + DHMBA, acyl group distribution, FIG. 4

COc1c(O)cc(CO)cc1O [DHMBA, 3,5-dihydroxy-4-methoxybenzyl alcohol]
cardiolipin molecular species ([1]; 100 µM oxidative stress inducer + DHMBA (250 or 500 µM), 24 hours, almost all species, FIG. 2): increased significantly | total cardiolipin content ([1]; co-treatment with 100 µM oxidative stress and 250 µM or 500 µM DHMBA, 24 hours, increase, FIG. 3): about 1.5 times | saturated fatty acid chain FA16:0 of cardiolipin [1, 5]: decreased | unsaturated fatty acid chain FA18:1 of cardiolipin [1, 5]: increased | unsaturated fatty acid chain FA18:2 of cardiolipin [1, 5]: increased | gene expression level of CDS2 [2]: decreased to the same level as the control group | gene expression level of PNPLA8 [3]: decreased to the same level as the control group | expression level of HADHB [4]: increased
